This is an account of results in patent publication US10040781B2, “Tank-binding kinase inhibitor compounds” (Gilead Sciences, Inc., priority 2014, dated 2018).

For experiment [1], the target named is TBK1 (Homo sapiens (Human), UniProt Q9UHD2). In words: TBK1 TR-FRET enzymatic assay. (In TR-FRET formats the signal depends on donor and acceptor labels being close together.);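 note: phosphorylation of a biotinylated Ser/Thr peptide by purified full-length recombinant TBK1, read by TR-FRET after 240 min at 25 °C, IC50 is the geometric mean of at least four runs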
Experiment [2] addresses hJAK2 (Homo sapiens (Human), UniProt O60674). Kind of experiment: hJAK2 LANCE TR-FRET enzymatic assay. It counts as biochemical. Conditions: read-out: JAK2 IC50.
For experiment [3], the target named is IKKε (Homo sapiens (Human), UniProt Q14164). In words: IKKε TR-FRET enzymatic assay. The experiment is classed as biochemical. Conditions: read-out: IKKe IC50.
[4] abbreviates: TR-FRET, 2×Km ATP, geometric mean of minimum four determinations.

Molecules are shown by their SMILES. Where two headings read alike, the source gives them in different places. Bounds are passed on as bounds.

Chain of IKKε (Q14164 whole entry): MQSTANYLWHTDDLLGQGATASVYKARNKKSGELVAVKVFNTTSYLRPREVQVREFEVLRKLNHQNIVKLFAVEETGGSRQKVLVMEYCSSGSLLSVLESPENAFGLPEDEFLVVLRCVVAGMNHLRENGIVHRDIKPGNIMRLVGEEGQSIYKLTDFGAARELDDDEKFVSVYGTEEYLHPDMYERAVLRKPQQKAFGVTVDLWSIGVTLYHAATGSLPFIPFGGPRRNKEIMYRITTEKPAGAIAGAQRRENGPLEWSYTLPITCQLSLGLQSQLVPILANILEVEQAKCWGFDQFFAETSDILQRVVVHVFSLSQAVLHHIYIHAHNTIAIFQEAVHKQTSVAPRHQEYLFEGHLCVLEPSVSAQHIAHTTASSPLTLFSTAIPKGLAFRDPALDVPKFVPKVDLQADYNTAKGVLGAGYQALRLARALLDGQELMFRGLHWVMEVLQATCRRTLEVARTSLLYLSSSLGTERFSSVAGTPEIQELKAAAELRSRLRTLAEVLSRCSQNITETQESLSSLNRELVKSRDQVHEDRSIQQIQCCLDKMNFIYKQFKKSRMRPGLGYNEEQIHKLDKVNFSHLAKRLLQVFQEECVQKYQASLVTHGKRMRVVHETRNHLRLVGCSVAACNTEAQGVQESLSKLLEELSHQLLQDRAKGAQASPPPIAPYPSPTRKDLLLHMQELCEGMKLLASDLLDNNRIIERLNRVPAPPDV
Chain of hJAK2 (O60674 whole entry): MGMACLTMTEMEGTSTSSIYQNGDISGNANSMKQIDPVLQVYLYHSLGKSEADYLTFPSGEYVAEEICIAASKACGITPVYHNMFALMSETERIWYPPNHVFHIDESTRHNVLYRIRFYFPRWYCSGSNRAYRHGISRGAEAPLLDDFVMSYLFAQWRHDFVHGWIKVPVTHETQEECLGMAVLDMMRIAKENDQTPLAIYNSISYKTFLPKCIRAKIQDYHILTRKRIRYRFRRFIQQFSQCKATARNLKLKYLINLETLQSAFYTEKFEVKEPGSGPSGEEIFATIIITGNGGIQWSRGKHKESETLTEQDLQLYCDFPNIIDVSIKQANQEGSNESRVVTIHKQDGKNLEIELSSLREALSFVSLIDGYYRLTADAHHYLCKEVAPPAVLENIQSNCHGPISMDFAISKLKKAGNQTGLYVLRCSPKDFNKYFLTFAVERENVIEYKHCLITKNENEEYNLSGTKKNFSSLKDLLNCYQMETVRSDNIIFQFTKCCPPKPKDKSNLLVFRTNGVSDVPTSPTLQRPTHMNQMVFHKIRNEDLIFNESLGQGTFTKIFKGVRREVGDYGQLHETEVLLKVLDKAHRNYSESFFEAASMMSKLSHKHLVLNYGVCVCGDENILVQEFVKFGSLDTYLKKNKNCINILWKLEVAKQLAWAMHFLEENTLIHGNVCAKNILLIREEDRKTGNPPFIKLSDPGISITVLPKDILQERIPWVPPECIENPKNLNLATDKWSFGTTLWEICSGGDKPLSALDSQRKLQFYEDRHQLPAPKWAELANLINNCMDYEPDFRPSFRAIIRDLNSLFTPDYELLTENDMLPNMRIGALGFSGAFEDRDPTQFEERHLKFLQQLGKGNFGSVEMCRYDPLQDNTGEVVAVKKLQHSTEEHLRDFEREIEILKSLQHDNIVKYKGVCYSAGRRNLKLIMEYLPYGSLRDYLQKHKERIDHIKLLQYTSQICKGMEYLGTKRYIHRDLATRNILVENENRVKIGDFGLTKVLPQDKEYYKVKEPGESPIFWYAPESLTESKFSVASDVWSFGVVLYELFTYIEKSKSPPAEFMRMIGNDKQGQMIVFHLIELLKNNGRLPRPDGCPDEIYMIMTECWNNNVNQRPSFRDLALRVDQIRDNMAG
Chain of TBK1 (Q9UHD2 whole entry): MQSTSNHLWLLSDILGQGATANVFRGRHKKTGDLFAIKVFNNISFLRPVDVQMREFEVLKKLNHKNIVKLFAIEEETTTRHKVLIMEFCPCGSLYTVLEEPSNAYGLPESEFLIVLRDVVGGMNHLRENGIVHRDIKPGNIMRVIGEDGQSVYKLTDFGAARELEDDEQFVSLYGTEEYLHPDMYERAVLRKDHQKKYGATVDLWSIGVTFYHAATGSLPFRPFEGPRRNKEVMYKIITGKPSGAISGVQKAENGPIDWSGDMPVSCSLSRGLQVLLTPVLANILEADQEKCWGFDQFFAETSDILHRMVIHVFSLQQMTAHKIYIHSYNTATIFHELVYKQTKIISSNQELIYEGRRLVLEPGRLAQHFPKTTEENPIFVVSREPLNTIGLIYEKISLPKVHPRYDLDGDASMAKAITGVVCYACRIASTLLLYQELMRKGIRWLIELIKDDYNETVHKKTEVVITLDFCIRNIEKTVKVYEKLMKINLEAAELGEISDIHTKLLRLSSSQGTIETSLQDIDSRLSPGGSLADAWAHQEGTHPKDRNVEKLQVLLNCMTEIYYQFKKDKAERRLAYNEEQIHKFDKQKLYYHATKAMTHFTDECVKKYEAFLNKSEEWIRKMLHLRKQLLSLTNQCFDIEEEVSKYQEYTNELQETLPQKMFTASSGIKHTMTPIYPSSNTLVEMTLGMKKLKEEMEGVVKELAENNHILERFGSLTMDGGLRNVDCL

Broadly, the IC50 is the concentration that gives 50% inhibition. With `CC(=O)NCC(=O)N1CCC(Oc2ccc(-c3ncnc(Nc4ccc(N5CCN(C6COC6)CC5)cc4)n3)cc2C#N)CC1` [Example 52, N-(2-(4-(2-cyano-4-(4-((4-(4-(oxetan-3-yl)piperazin-1-yl)phenyl)amino)-1,3,5-triazin-2-yl)phenoxy)piperidin-1-yl)-2-oxoethyl)acetamide], the IC50 in experiment [1] is 65 nM; in experiment [2], 491 nM; in experiment [3] it was 223 nM.

In the case of `C[C@@H](O)CC(=O)N1CC[C@H](Oc2ccc(-c3ncnc(Nc4ccc(N5CCN(C6COC6)CC5)cc4)n3)cc2C#N)[C@H](F)C1` [Example 471, 2-(((3R,4S)-3-fluoro-1-((R)-3-hydroxybutanoyl)piperidin-4-yl)oxy)-5-(4-((4-(4-(oxetan-3-yl)piperazin-1-yl)phenyl)amino)-1,3,5-triazin-2-yl)benzonitrile], the IC50 is 6 nM in experiment [1], 702 nM in experiment [2] and 14 nM in experiment [3] (setting [4]).

As to `N#Cc1cc(-c2ncnc(Nc3ccc(N4CCN(C5COC5)CC4)cc3)n2)ccc1OCCc1cnc2ncnn2c1` [Example 599], the IC50 in experiment [1] worked out at 37 nM; in experiment [2], 510 nM; in experiment [3], 176 nM.

`N#Cc1cc(-c2ncnc(Nc3ccc(N4CCN(C5COC5)CC4)cc3)n2)ccc1O[C@H]1CCN(C2CCOC2)C[C@H]1F` (stereo partly drawn) [Example 110, 2-(((3R,4S)-3-fluoro-1-(tetrahydrofuran-3-yl)piperidin-4-yl)oxy)-5-(4-((4-(4-(oxetan-3-yl)piperazin-1-yl)phenyl)amino)-1,3,5-triazin-2-yl)benzonitrile]: the IC50 in experiment [1] is 243 nM; in experiment [2] it was 740 nM; in experiment [3] it was 330 nM.

For the compound `C[C@H](O)C(=O)N1CC[C@H](Oc2ccc(-c3ncnc(Nc4ccc5cnn(C)c5c4)n3)cc2C#N)[C@H](F)C1` [Example 344, 2-(((3R,4S)-3-fluoro-1-((S)-2-hydroxypropanoyl)piperidin-4-yl)oxy)-5-(4-((1-methyl-1H-indazol-6-yl)amino)-1,3,5-triazin-2-yl)benzonitrile], the values for the IC50 in experiment [1], in experiment [2] and in experiment [3] were 7 nM, 707 nM and 5 nM, respectively.

As to `Cc1cc(Nc2ncnc(-c3ccc(O[C@H]4CCN(C(=O)[C@@H](O)CO)C[C@H]4F)c(C#N)c3)n2)cnc1N1CCN(C2COC2)CC1` [Example 513, 2-(((3R,4S)-1-((S)-2,3-dihydroxypropanoyl)-3-fluoropiperidin-4-yl)oxy)-5-(4-((5-methyl-6-(4-(oxetan-3-yl)piperazin-1-yl)pyridin-3-yl)amino)-1,3,5-triazin-2-yl)benzonitrile], the half-inhibitory concentration (IC50) was found to be 2 nM in experiment [1], 517 nM in experiment [2] and 1 nM in experiment [3] (setting [4]).

Regarding `N#Cc1cc(-c2ncnc(Nc3ccc(N4CCN(C5COC5)CC4)cc3)n2)ccc1O[C@H]1CCN(C(=O)C2(O)CNC2)C[C@H]1F` [Example 614, 2-(((3R,4S)-3-fluoro-1-(3-hydroxyazetidine-3-carbonyl)piperidin-4-yl)oxy)-5-(4-((4-(4-(oxetan-3-yl)piperazin-1-yl)phenyl)amino)-1,3,5-triazin-2-yl)benzonitrile], the values for the IC50 in experiment [1], in experiment [2] and in experiment [3] were 25 nM, 268 nM and 45 nM, respectively.

Regarding `N#Cc1cc(-c2ncnc(Nc3ccc(N4CCN(C5COC5)CC4)cc3)n2)ccc1O[C@H]1CCN(C(=O)c2[nH]ncc2N)C[C@H]1F` [Example 391, 2-(((3R,4S)-1-(4-amino-1H-pyrazole-5-carbonyl)-3-fluoropiperidin-4-yl)oxy)-5-(4-((4-(4-(oxetan-3-yl)piperazin-1-yl)phenyl)amino)-1,3,5-triazin-2-yl)benzonitrile], the IC50 in experiment [1] turned out to be 6 nM; in experiment [2], 122 nM; in experiment [3], 9 nM.

For `N#Cc1cc(-c2ncnc(Nc3cc(F)c(N4CCN(C5COC5)CC4)c(F)c3)n2)ccc1OC1CCOCC1` [Example 74, 5-(4-((3,5-difluoro-4-(4-(oxetan-3-yl)piperazin-1-yl)phenyl)amino)-1,3,5-triazin-2-yl)-2-((tetrahydro-2H-pyran-4-yl)oxy)benzonitrile], the IC50 is 3 nM in experiment [1], more than 1000 nM in experiment [2] and 12 nM in experiment [3].

For `CCOC(=O)c1cccc(Nc2ncnc(-c3ccc(O[C@H]4CCN(C(=O)[C@H](C)O)C[C@H]4F)c(C#N)c3)n2)c1` [Example 380, Ethyl 3-((4-(3-cyano-4-(((3R,4S)-3-fluoro-1-((S)-2-hydroxypropanoyl)piperidin-4-yl)oxy)phenyl)-1,3,5-triazin-2-yl)amino)benzoate], the IC50 in experiment [1] came out at 6 nM; in experiment [2] it was 891 nM; in experiment [3] it was 8 nM.

As to `C[C@H](O)C(=O)N1CCC(Oc2ccc(-c3ncnc(Nc4ccc(N5CCO[C@@H](CO)C5)cc4)n3)cc2C#N)C(F)(F)C1` (stereo partly drawn) [Example 228, 2-((3,3-difluoro-1-((S)-2-hydroxypropanoyl)piperidin-4-yl)oxy)-5-(4-((4-((R)-2-(hydroxymethyl)morpholino)phenyl)amino)-1,3,5-triazin-2-yl)benzonitrile], the results for the IC50 in experiment [1], in experiment [2] and in experiment [3] were 1 nM, 206 nM and 2 nM, respectively.

Consider `C[C@H]1C[C@@H](Oc2ccc(-c3ncnc(Nc4ccc(N5CCN(C6COC6)CC5)cc4)n3)cc2C#N)CCN1C(=O)c1cnn[nH]1` [Example 188, 2-(((2S,4S)-2-methyl-1-(1H-1,2,3-triazole-5-carbonyl)piperidin-4-yl)oxy)-5-(4-((4-(4-(oxetan-3-yl)piperazin-1-yl)phenyl)amino)-1,3,5-triazin-2-yl)benzonitrile], for which the values for the IC50 in experiment [1], in experiment [2] and in experiment [3] were 5 nM, 224 nM and 5 nM, respectively.

On to `C[C@H](O)C(=O)N1CCC(Oc2ccc(-c3ncnc(Nc4ccc(N5CCN(C6COC6)CC5)cc4)n3)cc2C#N)CC1` [Example 15, (S)-2-((1-(2-hydroxypropanoyl)piperidin-4-yl)oxy)-5-(4-((4-(4-(oxetan-3-yl)piperazin-1-yl)phenyl)amino)-1,3,5-triazin-2-yl)benzonitrile], for which the results for the IC50 in experiment [1], in experiment [2] and in experiment [3] were 5 nM, more than 1000 nM and 14 nM, respectively.

Take `CS(=N)(=O)c1ccc(Nc2ncnc(-c3ccc(O[C@H]4CCN(C=O)CC4(F)F)c(C#N)c3)n2)cc1` (stereo partly drawn) [Example 482, 2-(((S)-3,3-difluoro-1-formylpiperidin-4-yl)oxy)-5-(4-((4-(S-methylsulfonimidoyl)phenyl)amino)-1,3,5-triazin-2-yl)benzonitrile]: the IC50 in experiment [1] is 5 nM; in experiment [2], 221 nM; in experiment [3] (setting [4]) it was 7 nM.

As for `C[C@@H](O)C(=O)N1C[C@@H](F)[C@@H](Oc2ccc(-c3ncnc(Nc4ccc(N5CCN(C6COC6)CC5)cc4)n3)cc2C#N)C[C@@H]1C` [Example 412, 2-(((2S,4S,5R)-5-fluoro-1-((R)-2-hydroxypropanoyl)-2-methylpiperidin-4-yl)oxy)-5-(4-((4-(4-(oxetan-3-yl)piperazin-1-yl)phenyl)amino)-1,3,5-triazin-2-yl)benzonitrile], the IC50 in experiment [1] is 43 nM; in experiment [2] it was not below 1000 nM; in experiment [3] (setting [4]) it was 202 nM.

For `CN1C(=O)CC[C@H]1C(=O)N1CC[C@H](Oc2ccc(-c3ncnc(Nc4ccc(N5CCN(C6COC6)CC5)c(F)c4)n3)cc2C#N)[C@H](F)C1` [Example 408, 2-(((3R,4S)-3-fluoro-1-((S)-1-methyl-5-oxopyrrolidine-2-carbonyl)piperidin-4-yl)oxy)-5-(4-((3-fluoro-4-(4-(oxetan-3-yl)piperazin-1-yl)phenyl)amino)-1,3,5-triazin-2-yl)benzonitrile], the IC50 in experiment [1] is 86 nM; in experiment [2], not below 1000 nM; in experiment [3] (setting [4]) it was 119 nM.

As for `N#Cc1cc(-c2ncnc(Nc3ccc(N4CCN(C5COC5)CC4)cc3)n2)ccc1N1CCC2(CCO2)CC1` [Example 214, 5-(4-((4-(4-(oxetan-3-yl)piperazin-1-yl)phenyl)amino)-1,3,5-triazin-2-yl)-2-(1-oxa-7-azaspiro[3.5]nonan-7-yl)benzonitrile], the half-maximal inhibitory concentration (IC50) in experiment [1] was 12 nM; in experiment [2] it was 301 nM; in experiment [3], 43 nM.

With `Cc1ncc(Nc2ncnc(-c3ccc(O[C@H]4CCN(C(=O)[C@H](C)O)C[C@H]4F)c(C#N)c3)n2)s1` [Example 570, 2-(((3R,4S)-3-fluoro-1-((S)-2-hydroxypropanoyl)piperidin-4-yl)oxy)-5-(4-((2-methylthiazol-5-yl)amino)-1,3,5-triazin-2-yl)benzonitrile], the results for the IC50 in experiment [1], in experiment [2] and in experiment [3] (setting [4]) were 3 nM, not below 1000 nM and 4 nM, respectively.

For the compound `C[C@@H](O)C(=O)N1CCC(Oc2ccc(-c3ncnc(Nc4ccc(N5CCN(C6COC6)CC5)cc4)n3)cc2C#N)CC1` [Example 219, (R)-2-((1-(2-hydroxypropanoyl)piperidin-4-yl)oxy)-5-(4-((4-(4-(oxetan-3-yl)piperazin-1-yl)phenyl)amino)-1,3,5-triazin-2-yl)benzonitrile], the IC50 was 44 nM in experiment [1], 626 nM in experiment [2] and 126 nM in experiment [3].

Turning to `N#Cc1cc(-c2ncnc(Nc3ccc(N4CCN(C5COC5)CC4)cc3)n2)ccc1O[C@@H]1CN(C(=O)CO)C[C@H]1F` [Example 193, 2-(((3R,4R)-4-fluoro-1-(2-hydroxyacetyl)pyrrolidin-3-yl)oxy)-5-(4-((4-(4-(oxetan-3-yl)piperazin-1-yl)phenyl)amino)-1,3,5-triazin-2-yl)benzonitrile], the results for the IC50 in experiment [1], in experiment [2] and in experiment [3] were 14 nM, not below 1000 nM and 48 nM, respectively.

`N#Cc1cc(OC[C@H]2CCN(C(=O)CO)C2)cc(-c2ncnc(Nc3ccc(N4CCN(C5COC5)CC4)cc3)n2)c1` [Example 591, (S)-3-((1-(2-hydroxyacetyl)pyrrolidin-3-yl)methoxy)-5-(4-((4-(4-(oxetan-3-yl)piperazin-1-yl)phenyl)amino)-1,3,5-triazin-2-yl)benzonitrile]: the IC50 in experiment [1] is 474 nM; in experiment [2], 658 nM; in experiment [3] (setting [4]), not below 1000 nM.
